Test results as given in patent US20230278972A1, “SUBSTITUTED HALOALKYL SULFONANILIDE HERBICIDES” (FMC Corporation, priority 2020, published 2023).

What was measured:
Type in all cases: in vivo
[1] = test system: Ryegrass, Italian (Italian ryegrass, Lolium multiflorum); assay: Test A postemergence, Ryegrass, Italian; conditions: Postemergence, 0 to 100 scale (0 no effect, 100 complete control)
Procedure, shortened: (§1)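 Pots: loam soil/sand blend. Pre: directed soil spray at planting. Post: plants 2–10 cm, 1–2 leaf stage. Formulation: non-phytotoxic solvent + surfactant.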

[2] = test system: Foxtail, Giant (giant foxtail, Setaria faberi); assay: Test A postemergence, Foxtail, Giant; conditions: Postemergence, 0 to 100 scale (0 no effect, 100 complete control)
Procedure, shortened: as §1

kochia (Bassia scoparia) [3] = assay: Test A postemergence, kochia; conditions: Postemergence, 0 to 100 scale (0 no effect, 100 complete control)
Procedure, shortened: as §1

[4] = test system: barnyardgrass (Echinochloa crus-galli); assay: Test A postemergence, barnyardgrass; conditions: Postemergence, 0 to 100 scale (0 no effect, 100 complete control)
Procedure, shortened: (§2)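 After sowing into a sand-amended loam, pots for the preemergence test were treated by spraying directly onto soil. In parallel, seedlings at the one- to two-leaf stage and 2 to 10 cm tall were treated postemergence with the identical surfactant-containing formulation.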

[5] = test system: pigweed (Amaranthus retroflexus); assay: Test A preemergence, pigweed; conditions: for Pigweed plant response rating: 125 g ai/ha, visual injury on 0 to 100 scale (0 no effect, 100 complete control), approximately 10 days; for Plant response rating, Pigweed: 0 to 100 scale (0 no effect, 100 complete control)
Source text: Seeds of plant species selected from barnyardgrass (Echinochloa crus-galli), kochia (Bassia scoparia), ragweed (common ragweed, Ambrosia artemisiifolia), Ryegrass, Italian (Italian ryegrass, Lolium multiflorum), Foxtail, Giant (giant foxtail, Setaria faberi), and pigweed (Amaranthus retroflexus) were planted into a blend of loam soil and sand and treated preemergence with a directed soil spray using test chemicals formulated in a non-phytotoxic solvent mixture which included a surfactant. At the same time, plants selected from these weed species and also wheat (Triticum aestivum), corn (Zea mays), blackgrass (Alopecurus myosuroides), and galium (catchweed bedstraw, Galium aparine) were planted in pots containing the same blend of loam soil and sand and treated with postemergence applications of test chemicals formulated in the same manner. Plants ranged in height from 2 to 10 cm and were in the one- to two-leaf stage for the postemergence treatment. […] A dash (-) response means no test result.

corn (Zea mays) = assay: Test A postemergence, corn; conditions: Postemergence, 0 to 100 scale (0 no effect, 100 complete control)
Procedure, shortened: as §1

[6] = test system: pigweed (Amaranthus retroflexus); assay: Test A postemergence, pigweed; conditions: Postemergence, 0 to 100 scale (0 no effect, 100 complete control)
Procedure, shortened: as §1

[7] = test system: barnyardgrass (Echinochloa crus-galli); assay: Test A preemergence, barnyardgrass; conditions: Preemergence; for Barnyardgrass plant response rating: 125 g ai/ha, visual injury on 0 to 100 scale (0 no effect, 100 complete control), approximately 10 days; for Plant response rating, Barnyardgrass: 0 to 100 scale (0 no effect, 100 complete control)
Procedure, shortened: as §1

kochia (Bassia scoparia) [8] = assay: Test A preemergence, kochia; conditions: Preemergence; for Kochia plant response rating: 125 g ai/ha, visual injury on 0 to 100 scale (0 no effect, 100 complete control), approximately 10 days; for Plant response rating, Kochia: 0 to 100 scale (0 no effect, 100 complete control)
Procedure, shortened: as §1

[9] = test system: ragweed (common ragweed, Ambrosia artemisiifolia); assay: Test A postemergence, ragweed; conditions: Postemergence, 0 to 100 scale (0 no effect, 100 complete control)
Procedure, shortened: as §1

[10] = test system: Ryegrass, Italian (Italian ryegrass, Lolium multiflorum); assay: Test A preemergence, Ryegrass, Italian; conditions: Preemergence; for Ryegrass, Italian plant response rating: 125 g ai/ha, visual injury on 0 to 100 scale (0 no effect, 100 complete control), approximately 10 days; for Plant response rating, Ryegrass, Italian: 0 to 100 scale (0 no effect, 100 complete control)
Procedure, shortened: as §1

[11] = test system: Foxtail, Giant (giant foxtail, Setaria faberi); assay: Test A preemergence, Foxtail, Giant; conditions: Preemergence; for Foxtail, Giant plant response rating: 125 g ai/ha, visual injury on 0 to 100 scale (0 no effect, 100 complete control), approximately 10 days; for Plant response rating, Foxtail, Giant: 0 to 100 scale (0 no effect, 100 complete control)
Procedure, shortened: as §1

[12] = test system: galium (catchweed bedstraw, Galium aparine); assay: Test A postemergence, galium; conditions: Postemergence, 0 to 100 scale (0 no effect, 100 complete control)
Procedure, shortened: as §2

[13] = test system: wheat (Triticum aestivum); assay: Test A postemergence, wheat; conditions: Postemergence, 0 to 100 scale (0 no effect, 100 complete control)
Procedure, shortened: as §2

[14] = test system: blackgrass (Alopecurus myosuroides); assay: Test A postemergence, blackgrass; conditions: Postemergence, 0 to 100 scale (0 no effect, 100 complete control)
Procedure, shortened: as §1

[15] = 125 g ai/ha, visual injury approx. 10 days
[16] = 500 g ai/ha, visual injury, approx. 10 days
[17] = 1000 g ai/ha, visual injury, approx. 10 days

| SMILES | Plant response rating, Ryegrass, Italian [1, 15] | Plant response rating, Ryegrass, Italian [1, 16] | Plant response rating, Foxtail, Giant [2, 15] | Plant response rating, Foxtail, Giant [2, 16] | Plant response rating, Kochia (kochia (Bassia scoparia) [3]; [15]) | Plant response rating, Kochia (kochia (Bassia scoparia) [3]; [16]) | Plant response rating, Barnyardgrass [4, 15] | Plant response rating, Barnyardgrass [4, 16] | Pigweed plant response rating [5] | Plant response rating, Pigweed ([5]; 500 g ai/ha) | Plant response rating, Corn (corn (Zea mays); [15]) | Plant response rating, Corn (corn (Zea mays); [16]) | Plant response rating, Pigweed [6, 15] | Plant response rating, Pigweed [6, 16] | Barnyardgrass plant response rating [7] | Plant response rating, Barnyardgrass ([7]; 500 g ai/ha) | Kochia plant response rating (kochia (Bassia scoparia) [8]) | Plant response rating, Kochia (kochia (Bassia scoparia) [8]; 500 g ai/ha) | Plant response rating, Ragweed [9, 15] | Plant response rating, Ragweed [9, 16] | further results |
| --- | --- | --- | --- | --- | --- | --- | --- | --- | --- | --- | --- | --- | --- | --- | --- | --- | --- | --- | --- | --- | --- |
| O=C(c1ccc(Cl)c(NS(=O)(=O)C(F)(F)F)c1)N1CCOCC1 [Compound 15] | 30 | 0 | 0 | 50 | 40 | 70 | 0 | 50 | 60 | 70 | 0 | 0 | 0 | 30 | 0 | 0 | 0 | 80 | 70 | 80 | Ryegrass, Italian plant response rating [10]: 30; Plant response rating, Ryegrass, Italian ([10]; 500 g ai/ha): 30; Foxtail, Giant plant response rating [11]: 10; Plant response rating, Foxtail, Giant ([11]; 500 g ai/ha): 70; Plant response rating, Galium [12, 15]: 50; Plant response rating, Galium [12, 16]: 60; Plant response rating, Wheat [13, 15]: 0; Plant response rating, Wheat [13, 16]: 0; Plant response rating, Blackgrass [14, 15]: 0; Plant response rating, Blackgrass [14, 16]: 30 |
| CCN(CC)C(=O)c1cc(NS(=O)(=O)C(F)(F)F)c(Cl)cc1C [Compound 21] | 0 | 50 | 0 | 20 | 10 | 30 | 20 | 40 | 40 | 60 | 0 | 30 | 0 | 40 | 80 | 100 | 0 | 0 | 50 | 90 | Ryegrass, Italian plant response rating [10]: 30; Plant response rating, Ryegrass, Italian ([10]; 500 g ai/ha): 100; Foxtail, Giant plant response rating [11]: 20; Plant response rating, Foxtail, Giant ([11]; 500 g ai/ha): 100; Plant response rating, Galium [12, 15]: 50; Plant response rating, Galium [12, 16]: 60; Plant response rating, Wheat [13, 15]: 0; Plant response rating, Wheat [13, 16]: 30; Plant response rating, Blackgrass [14, 15]: 10; Plant response rating, Blackgrass [14, 16]: 10 |
| Cc1cc(Cl)c(NS(=O)(=O)C(F)(F)F)cc1C(=O)N(C)C [Compound 23] | 30 | 80 | 50 | 90 | 40 | 70 | 50 | 70 | 80 | 100 | 20 | 70 | 70 | 80 | 90 | 100 | 80 | 80 | 80 | 80 | Ryegrass, Italian plant response rating [10]: 40; Plant response rating, Ryegrass, Italian ([10]; 500 g ai/ha): 100; Foxtail, Giant plant response rating [11]: 70; Plant response rating, Foxtail, Giant ([11]; 500 g ai/ha): 100; Plant response rating, Galium [12, 15]: 80; Plant response rating, Galium [12, 16]: 90; Plant response rating, Wheat [13, 15]: 50; Plant response rating, Wheat [13, 16]: 70; Plant response rating, Blackgrass [14, 15]: 30; Plant response rating, Blackgrass [14, 16]: 30 |
| Cc1ccc(C(=O)N2CCC(C(F)(F)F)CC2)cc1NS(=O)(=O)C(F)(F)F [Compound 263] | – | – | – | – | – | – | – | – | – | – | – | – | – | – | – | – | – | – | – | – | Plant response rating, Ryegrass, Italian [1, 17]: 80; Plant response rating, Foxtail, Giant [2, 17]: 0; Plant response rating, Kochia (kochia (Bassia scoparia) [3]; [17]): 10; Plant response rating, Barnyardgrass [4, 17]: 30; Plant response rating, Pigweed ([5]; 1000 g ai/ha): 60; Plant response rating, Corn (corn (Zea mays); [17]): 20; Plant response rating, Pigweed [6, 17]: 0; Plant response rating, Barnyardgrass ([7]; 1000 g ai/ha): 30; Plant response rating, Kochia (kochia (Bassia scoparia) [8]; 1000 g ai/ha): 20; Plant response rating, Ragweed [9, 17]: 0; Plant response rating, Ryegrass, Italian ([10]; 1000 g ai/ha): 50; Plant response rating, Foxtail, Giant ([11]; 1000 g ai/ha): 70; Plant response rating, Galium [12, 17]: 60; Plant response rating, Wheat [13, 17]: 0; Plant response rating, Blackgrass [14, 17]: 20 |
